Where “and” joins values, the source holds several entries; their conditions need not be identical. Identical values can stand only once.
Columns and labels:
Type in all cases: in vivo, rat
EAMG rats [1] = experiment: Treadmill running time and clinical status of EAMG rats; settings: for Treadmill Performance Time: individual EAMG rat; for Clinical score: individual rat
AChE-R mRNA = AChE-R mRNA in mandibular lymph nodes of Crl:CD rats; settings: 0.50 μg/g/day, 7 days; rEN101 oral or i.v., hEN101 i.v.; vs saline
Description: A study of the potential efficacy as well as toxicity of hEN101 was conducted on 4 week-old Crl:CD rats. To groups of 12 animals (6 males, 6 females) were administered 0.0 (saline only), 0.50 or 2.50 μg/g/day of hEN101 by oral gavage (o.g.), 0.50 μg/g/day of rEN101 by o.g., or 0.50 μg/g/day of rEN101 or hEN101 by i.v. injection. Additionally, there was a control group that was not injected. For 7 days the animals were checked for gross signs of toxicity: mortality, body weight, food consumption, ophtalmology, hematology (peripheral blood), and blood chemistry. At 7 days they were sacrificed and examined post mortem for macroscopic pathology and organ weight. Fixed sections of brain (cerebellum, cerebrum, midbrain, medulla), heart (auricular and ventricular regions), kidneys (cortex, medulla, papilla regions), liver (all main lobes), lungs (two major lobes, including bronchi), lymph nodes (mandibular and mesenteric), spinal cord (transverse and longitudinal sections at cervical, lumbar and thoracic levels), caecum, colon, duodenum, ileum, jejunum, esophagus, rectum, spleen and stomach (keratinized, glandular and antrum) were stained with hematoxylin/eosin to reveal necrosis or cell death.
Mandibular lymph nodes were examined for the effect of EN101 on AChE-R mRNA. […]

AChE-S = AChE-S expression in mandibular lymph nodes of Crl:CD rats; settings: 0.50 μg/g/day, 7 days; rEN101 oral or i.v., hEN101 i.v.
AChE-R = experiment: Immunoblot densitometry of serum AChE-R in EAMG rats; settings: 24 h after single i.v. injection of 250 μg/Kg
Description: Serum analyses: Blood samples drawn from EAMG rats and MG patients were subjected to non-denaturing gel electrophoresis as described [Kaufer et al. (1998) id ibid], as well as to catalytic activity measurements of AChE [Shapira et al. (2000) id ibid]. Iso-OMPA (tetraisopropylpyrophosphoramide, […]), was used to block butyrylcholinesterase activity in the serum samples. For activity staining on polyacrylamide gels [Kaufer et al. (1998) id ibid] we used 5-10−6 M iso-OMPA.
To evaluate the physiological outcome of this suppression, compound muscle action potentials (CMAPs) from the gastrocnemius muscle were recorded. […] The baseline decline, the percent difference in the heights of the fifth and the first evoked potentials, ranged from 10% to 36% (mean±SEM=13.0±2.5%, FIG. 9B, inset) as compared to 4.0±0.9% among healthy rats. The standard therapy for MG patients is administration of anti-cholinesterases, which elevate ACh levels to a threshold that enables receptor activation. Accordingly, neostigmine bromide (Prostigmine™, 75 μg/kg) was administered via i.p. This rapidly and effectively corrected the CMAP decline in EAMG rats, from 87.6% of the first evoked potential in untreated animals to […] of this level (i.e. 107.4%) of the first evoked potential). […]

EAMG rats [2] = experiment: Repeated daily treatment of EAMG rats (5 days and 1 month): survival, body weight, status
Source text: As shown in Example 5, unlike anti-cholinesterases, rEN101 afforded long-term maintenance of stable CMAP. This further enabled the inventors to test whether the cholinergic imbalance contributes to the physiological deterioration that is characteristic of EAMG. Rats were first treated with rEN101 once a day for 5 days, CMAPs being determined prior to each treatment. Both the efficacy of rEN101 in retrieving normal CMAP and its capacity to reduce the inter-animal variability in CMAP values reached similar levels to those of pyridostigmine (FIGS. 11A and 11B). However, the onset of response to pyridostigmine was more rapid (Table 1), while that observed with rEN101 was longer-lasting. Daily oral or i.v administration of rEN101 stabilized CMAPs over the entire course of treatment (FIG. 11B). In contrast, the effect of pyridostigmine wore off within several hours, causing pronounced fluctuations in muscle status (Table 1 and FIG. 11). Among the animals treated daily with pyridostigmine, 5 out of 6 died within the 5 day experimental course. In contrast, 6 out of 8 animals treated once-a-day with rEN101 via o.g. survived the full 5 day period. This conspicuous difference might reflect the susceptibility of EAMG rats to repeated anesthesia and CMAP measurements. In order to avoid these additional stresses and evaluate the effect of the antisense treatment on EAMG pathophysiology, the inventors subjected groups of moderately sick animals to 1 month of daily oral treatment with minimal interference. […] One way repeated measures ANOVA yielded P<0.05 for all other measures (AS vs. other treatments at 4 weeks). The effect of rEN101 on clinical symptoms was also corroborated by body weight changes. Rats treated with saline and Mestinon treated groups lost 13.5 and 11 g/animal, respectively, whereas animals treated with rEN101 gained, on average, 13 g during the treatment period. Thus, daily rEN101 administration promoted long-term change in the course of EAMG in rats with moderate to severe symptoms, under the same conditions in which untreated or pyridostigmine-treated animals deteriorated.

Substance	Effect on muscle stamina in EAMG rats (EAMG rats [1]; 0.25 μg/g oral single dose)	Treadmill Performance Time (EAMG rats [1]; 5 h, 0.25 μg/g oral single dose)	Treadmill Performance Time (EAMG rats [1]; 24 h, 0.25 μg/g oral single dose)	Clinical score (EAMG rats [1]; 24 h, scale 0 to 5 (death), 0.25 μg/g oral single dose)	Treadmill Performance Time (EAMG rats [1]; 48 h, 0.25 μg/g oral single dose)	Clinical score (EAMG rats [1]; 48 h, scale 0 to 5 (death), 0.25 μg/g oral single dose)	Treadmill Performance Time (EAMG rats [1]; before (basal), 0.25 μg/g oral single dose)	Clinical score (EAMG rats [1]; before (basal), scale 0 (no weakness) to 5 (death))	AChE-R mRNA levels in mandibular lymph nodes (AChE-R mRNA)	Expression of AChE-S synaptic variant in mandibular lymph nodes (AChE-S)	Treadmill running time after treatment (EAMG rats [1]; EAMG disease grade 2, 250 μg/Kg i.v., 24 h)	Treadmill running time before treatment (EAMG rats [1]; EAMG disease grade 2, 25 m/min)	Treadmill running time after treatment (EAMG rats [1]; EAMG disease grade 3, 250 μg/Kg i.v., 24 h)	Treadmill running time before treatment (EAMG rats [1]; EAMG disease grade 3, 25 m/min)	Treadmill running time after treatment (EAMG rats [1]; EAMG disease grade 4, 250 μg/Kg i.v., 24 h)	Treadmill running time before treatment (EAMG rats [1]; EAMG disease grade 4, 25 m/min)	Serum AChE-R level (AChE-R)	Animals that survived the full 5 day period (EAMG rats [2]; EAMG rats treated once-a-day via o.g.)	Survival, clinical status and treadmill performance vs pyridostigmine- and saline-treated animals (EAMG rats [2]; EAMG rats, 1 month daily oral doses (50 μg/Kg))	Body weight gained during the treatment period, average (EAMG rats [2]; EAMG rats, 1 month daily oral treatment)
5′-CTGCCACGTTCTCCTGCACC-3′ [hEN101]	promoted muscle stamina	300 s and 120 s and 150 s and 70 s	345 s and 170 s and 380 s and 360 s and 30 s	(1) (3×) and (2) and |||| (3) and (3)	85 s and 290 s	2.5 and 2 and || (5)	210 s and 80 s and 180 s and 30 s and 110 s and 0 s	(2.5) (2×) and 3 and (3.5) and (3) and 3.5	inconsistent in depressing AChE-R mRNA levels	did not affect the expression										
5′-CTGCGATATTTTCTTGTACC-3′ (chemistry not given here) [rEN101]									inconsistent in depressing AChE-R mRNA levels	did not affect the expression	488 ± 58 s	247 ± 35 s	500 ± 193 s	179 ± 21 s	212 ± 59 s	32 ± 6 s	reducing its serum level	6 out of 8	significant improvement in survival, clinical status and treadmill performance	13 g

Source: patent US7456154B2 (priority 2001, dated 2008)
